# Reference: ChEMBL document CHEMBL1811878, “Heteroatom-substituted analogues of orphan nuclear receptor small heterodimer partner ligand and apoptosis inducer (E)-4-[3-(1-Adamantyl)-4-hydroxyphenyl]-3-chlorocinnamic acid” (J Med Chem, 2011)
# Activity calls are given as the source filed them. The calls are words filed in the database; no cut-off is given here.
# Tests used:
# A549 [1] = test: Induction of apoptosis in human A549 cells assessed as decrease in ATP level at 10 uM after 72 hrs by luminescence assay; assay type: functional, cell-based
# A549 [2] = test: Induction of apoptosis in human A549 cells assessed as decrease in ATP level after 72 hrs by luminescence assay; assay type: functional, cell-based
# PC-3 [3] = test: Induction of apoptosis in human PC3 cells assessed as decrease in ATP level after 72 hrs by luminescence assay; assay type: functional, cell-based
# HT-29 = test: Induction of apoptosis in human HT-29 cells assessed as decrease in ATP level after 72 hrs by luminescence assay; assay type: functional, cell-based
# KG-1 [4] = test: Growth inhibition in human KG1 cells expressing p53 gene at 1 uM after 48 hrs by MTT assay; assay type: functional; conditions: KG-1, 48 h, read-out: GI
# KG-1 [5] = test: Growth inhibition in human KG1 cells expressing p53 gene at 5 uM after 48 hrs by MTT assay; assay type: functional; conditions: KG-1, 48 h, read-out: GI
# KG-1 [6] = test: Induction of apoptosis in human KG1 cells expressing p53 gene assessed as DNA fragmentation at 1 uM after 48 hrs by acridine orange staining method; assay type: functional
# KG-1 [7] = test: Induction of apoptosis in human KG1 cells assessed as DNA fragmentation at 5 uM after 48 hrs by acridine orange staining method; assay type: functional
# PC-3 [8] = test: Induction of apoptosis in human PC3 cells assessed as decrease in ATP level at 10 uM after 72 hrs by luminescence assay; assay type: functional, cell-based
Compound,Activity (A549 [1]),Activity (A549 [2]),Activity (PC-3 [3]),Activity (HT-29),inhibition of growth at 1 µM (KG-1 [4]) [%],inhibition of growth at 5 µM (KG-1 [5]) [%],Activity (KG-1 [6]) [%],Activity (KG-1 [7]) [%],Activity (PC-3 [8])
O=C(O)COc1ccc(-c2ccc(O)c(C34CC5CC(CC(C5)C3)C4)c2)c(Cl)c1,inactive,Dose-dependent effect,Dose-dependent effect,Dose-dependent effect,34,75,5,25,
O=C(O)CS(=O)(=O)c1ccc(-c2ccc(O)c(C34CC5CC(CC(C5)C3)C4)c2)c(Cl)c1,,Dose-dependent effect,Dose-dependent effect,Dose-dependent effect,7,13,2,6,
O=C(O)CCc1ccc(-c2ccc(O)c(C34CC5CC(CC(C5)C3)C4)c2)c(Cl)c1,,Dose-dependent effect,Dose-dependent effect,Dose-dependent effect,0,0,0,1,
O=C(O)CC(=O)N1CCN(c2ccc(O)c(C34CC5CC(CC(C5)C3)C4)c2)C(=O)C1,,Dose-dependent effect,Dose-dependent effect,Dose-dependent effect,-2,-5,1,2,
O=C(O)c1cc2ccc(-c3ccc(O)c(C45CC6CC(CC(C6)C4)C5)c3)cc2[nH]1,,Dose-dependent effect,Dose-dependent effect,Dose-dependent effect,1,8,1,3,
CC(=O)Oc1ccc(-c2ccc(/C=C/C(=O)O)cn2)cc1C12CC3CC(CC(C3)C1)C2,,Dose-dependent effect,Dose-dependent effect,Dose-dependent effect,46,54,52,67,
CCOC(=O)/C=C/c1ccc(-c2ccc(O)c(C34CC5CC(CC(C5)C3)C4)c2)nc1,Active,Dose-dependent effect,Dose-dependent effect,Dose-dependent effect,0,45,0,0,Active
O=C(O)/C=C/C1CCN(c2ccc(O)c(C34CC5CC(CC(C5)C3)C4)c2)CC1,,Dose-dependent effect,Dose-dependent effect,Dose-dependent effect,1,2,1,1,
O=C(O)CSc1ccc(-c2ccc(O)c(C34CC5CC(CC(C5)C3)C4)c2)c(Cl)c1,,Dose-dependent effect,Dose-dependent effect,Dose-dependent effect,7,11,2,5,
O=C(O)CCN1CCN(c2ccc(O)c(C34CC5CC(CC(C5)C3)C4)c2)CC1,inactive,Dose-dependent effect,Dose-dependent effect,Dose-dependent effect,-3,5,1,1,Active
O=C(O)CNc1cnc(-c2ccc(O)c(C34CC5CC(CC(C5)C3)C4)c2)nc1,,Dose-dependent effect,Dose-dependent effect,Dose-dependent effect,0,0,0,0,
